Reference: patent US20090286693A1, “MICROARRAYS OF TAGGED COMBINATORIAL TRIAZINE LIBRARIES” (New York University, NYU Medical Center, Department of …, priority 2001, published 2009)
Where two headings read alike, the source gives them in different places.

What was measured:
human IgG [1] = system: T1, human IgG; test: Small-molecule microarray screening with Cy3-labeled human IgG; assay type: binding; settings: for microarray hit strength in words: based on spot intensity; for array signal (fluorescence units): spot intensity, background subtracted
T1 construct: array signal (fluorescence units); other: spot intensity, background subtracted; human IgG-Cy3; array signal class; other: symbol in brackets after the fluorescence units; microarray hit strength in words; other: based on spot intensity, human IgG-Cy3; fused on or other part: Cy3 dye coupled through the NHS ester (chemical label, no fusion)
Description: Human IgG was fluorescently labeled with Cy3-NHS to allow for sensitive visualization of small molecule-IgG interactions on the array. […] The resulting scans were typical to that seen in FIG. 1. […] The spot intensities of these molecules are given in Table 1, with the background subtracted accordingly.
Preparation and Analysis of Small-Molecule Arrays. Preparation of Slides Activated with N-Hydroxysuccinimide Esters. 2 Briefly, 25 mm×75 mm slides (Fisher Scientific) were cleaned in piranha solution (sulfuric acid/hydrogen peroxide, 7:3). An amine functionality was incorporated onto the slides by silanization using a solution of 3% (aminopropyl)triethoxysilane in 2% water and 95% ethanol. After 1-2 h of soaking, the slides were washed with ethanol and cured at 150° C. for at least 2 h. Subsequently, the amine slides were incubated in a solution of 180 mM succinic anhydride in DMF for 30 min thereafter were transferred to a boiling water bath for 2 min. The slides were washed again in ethanol and dried under a stream of nitrogen. The carboxylic acid moieties now created on the slide surface were activated with a solution of 100 mM of TBTU (O-(benzotriazol-1-yl)-N,N,N,N-tetramethyluronium tetrafluoroborate), 200 mM DIEA, and 100 mM N-hydroxysuccinimide in DMF, thus generating the NHS-derivatized slides.
Microarray Printing. By individually weighing the solid compounds, triazine stock solutions were prepared to 2.5 mM in DMF, and 40-iL preparations were distributed across seven 384-well plates to give a total of 2688 distinct and pure compounds. Slides were spotted on an ESI SMA arrayer (Ontario, Canada) with the printhead installed with eight ArrayIt Chipmaker 7 Microspotting pins (Telechem, U.S.A.). Printing was performed in duplicate, and the pins were washed and sonicated in ethanol between samples. A repotting blotting process was also performed on plain slides to ensure spot uniformity. An additional solution of 0.2 mM Cy3-NH2 11 reference was spotted at the ends of the grids using a final eighth plate.
After spotting, the slides were allowed to sit for at least 12 h in situ and then were quenched by washing in an 1% ethanolamine (in DMF) bath for 2 h. After rinsing with Journal of Combinatorial Chemistry Discovery of Small-Molecule Ligands of Human IgG E ethanol and drying, the arrayed slides were stored in a desiccator at 4° C. The slides were stable for extended periods and, when required, were simply brought to room temperature.
Protein Screening with Labeled Human IgG. Proteins were tagged with Cy3-NHS by incubating 5 iL of 20 mM Cy3-NHS (Amersham Biosciences, U.K.) with 200 ig of human IgG (Calbiochem, U.S.A.) in a sodium bicarbonate buffer at pH 8. After 1 h of incubation, the labeled protein was separated from the free dye by a NAP-5 Sephadex G-50 column (Amersham Biosciences, U.K.). Before incubation with the labeled protein, the slides were preblocked to remove any nonspecific binding by soaking in 1% BSA in PBS for 1 h. After a brief rinsing with water, the slides were incubated with the labeled IgG.
A 1000-fold dilution of the above protein preparation was used as the incubation solution in a PBS buffer containing 1% BSA with the small-molecule arrays using the cover slip method for 30 min in a humid incubation chamber. Excess IgG was then removed by washing with distilled water. The background was further reduced using repeated washes with PBST.
Slide Scanning and Analysis. Slides were scanned on an ArrayWoRx scanner (Applied Precision, U.S.A.). Excel sheets were prepared to assign various compounds to specific numberings that could be readily tallied with reference numbers generated by the program. The ArrayWoRx software allows generation of reference files in which the spotting arrangement and the program overlay the spots on the results obtained, allowing compounds to be assigned in a rational fashion to every position. […]

human IgG [2] = biological target: T2, human IgG; test: SPR (Biacore X) competitive binding with protein A on CM-5 chip immobilized with human IgG, dissociation constants
T2 construct: Kd/M; other: SPR, small molecule premixed with protein A, IgG immobilized; averaged dissociation constant; other: protein A with IgG alone
Experimental: Dissociation constants were determined for each of the compounds selected using SPR on a Biacore X system with BiaEvaluation software. Competitive binding experiments were performed with differentially proportioned mixtures of a small molecule and protein A on a CM-5 chip immobilized with human IgG (see Supporting Information) (Table 1), which also ensures the small molecule binding to the same Scheme 2. General Experimental Scheme a (a) Directed immobilization of triazine libraries to generate a high-density microarray. (B) Incubation with a fluorescently labeled protein. (C) Removal of the unbound protein through washing. (D) Detection with instantaneous deconvolution of positive hits. (E) Assessing efficacy of hits using SPR. An averaged dissociation constant of 1.25×10−9 M was obtained for protein A with IgG alone. Further assessments made by passing 2.5 iM of a small molecule against the IgG surface were also performed to give measurable association levels that correlate with binding affinities (Table 1). Immobilizing the small molecules and applying IgG in the solution phase obtained equivalent binding measurements; however, by employing the competitive binding method described, a single chip surface may be used for screening against multiple potential small-molecule ligands, economizing the process. A φ2 value of <10 was obtained for all Kd measurements, denoting good statistical validity of the results obtained.
Surface Plasmon Resonance (SPR) Determination of Dissociation Constants. Maintenance. SPR measurements were made on a Biacore X system (Biacore AB, Uppsala, Sweden). Various maintenance steps were performed to ensure that the instrument was kept in good working conditions. The integrated flow cell was washed, sanitized, and maintained using standard cleansing reagents on a weekly basis. Calibration checks were performed quarterly to ensure that the signal was of good quality, and the instrument was kept separate from other equipments to prevent interference. When not in use, the system was docked with a spare chip and flushed with water at a low flow rate of 5 iL/min to prevent clogging. The system was primed at least twice before use or for the purpose of initiating a new buffer type. A desorb process was performed every 2 days during periods of active use to remove proteins or other contaminating compounds that may have accumulated within the flow cell.
Procedures. Various approaches were conceived to assess the Kd values of the interactions. One successful method immobilized the small molecule on the CM-5 sensor chips and ran them through varying concentrations of IgG. […] We conceived that it would be easier to immobilize IgG on the surface and apply differing proportioned mixtures of the “hit” small molecule and protein A (Amersham Biosciences, U.K.). […]

[3] = system: other fluorescently labeled proteins (unrelated to human IgG); test: Control microarray screening with unrelated fluorescently labeled proteins; settings: same slide screened with other fluorescently labeled proteins; no positive binding
[4] = SPR, small molecule premixed with protein A, IgG immobilized, read-out: Kd/M

| Kd (human IgG [2]; [4]) [µM] | specificity of binding toward human IgG [3] | Compound | microarray hit strength in words (human IgG [1]) | array signal (fluorescence units) (human IgG [1]) | Kd (human IgG [2]; protein A with IgG alone, read-out: averaged dissociation constant) [µM] |
| --- | --- | --- | --- | --- | --- |
| 4.35 | highly specific | NCCOCCOCCNC(=O)c1ccc(CNc2nc(NCC3CCCCC3)nc(NC3CCC3)n2)cc1 [AMD10] | strongest hits | 179 |  |
| 151 |  | COc1ccc(CNc2nc(Nc3ccc(CC(=O)NCCOCCOCCN)cc3)nc(N3CCCCC3)n2)cc1 [APF29] | negative | < 10 |  |
|  |  | protein A: staphylococcal protein A (Amersham Biosciences), high molecular weight IgG ligand used as SPR competitor [reference compound] |  |  | 0.00125 |
| 2.02 | highly specific | NCCOCCOCCNC(=O)c1ccc(CNc2nc(NCC3CCCCC3)nc(NC3CC4CCC3C4)n2)cc1 (stereo not drawn) [AMD03] | strongest hits | 185 |  |
